Our source for the Ki values is patent US20110046106A1, “ARYL SULFONAMIDES AS EFFECTIVE ANALGESICS” (BOEHRINGER INGELHEIM INTERNATIONAL GMBH, priority 2008, published 2011).

This experiment concerns the target T1, rat BK1 receptor (Rattus norvegicus, UniProt P97583).
T1 construct: expressed in transfected cells
T1 sequence (P97583 1-337): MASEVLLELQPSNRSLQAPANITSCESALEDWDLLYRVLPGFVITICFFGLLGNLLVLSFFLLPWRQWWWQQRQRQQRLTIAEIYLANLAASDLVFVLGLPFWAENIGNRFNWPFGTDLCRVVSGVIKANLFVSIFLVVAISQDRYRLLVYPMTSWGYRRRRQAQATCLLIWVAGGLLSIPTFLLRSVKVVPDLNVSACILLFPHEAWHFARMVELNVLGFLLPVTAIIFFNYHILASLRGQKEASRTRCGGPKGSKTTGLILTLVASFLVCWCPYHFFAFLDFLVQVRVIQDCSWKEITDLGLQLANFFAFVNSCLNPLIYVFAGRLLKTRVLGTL
In words: Bradykinin BK1-receptor binding (radioligand displacement, membranes of CHO cells). The settings on record: membranes of CHO cells stably expressing the rat BK1 receptor; 1 to 5 nM [3H]-kallidin (DesArg10, Leu9); 120 minutes at room temperature. As to the method:
Description of the Method of Bradykinin BK1-Receptor Binding
CHO cells stably expressing the rat BK1 receptor are cultivated in Dulbecco's modified medium. The medium from confluent cultures is removed and the cells are washed with PBS buffer, scraped off and isolated by centrifugation. The cells are then homogenized in suspension and the homogenate is centrifuged and resuspended. The protein content is determined and the membrane preparation obtained in this manner is then frozen at −80° C.
After thawing, 200 μl of the homogenate (50 to 100 μg of proteins/assay) are incubated at room temperature with 1 to 5 nM of kallidin (DesArg10, Leu9), [3,4-prolyl-3,43H(N)] and increasing concentrations of the test substance in a total volume of 250 μl for 120 minutes. The incubation is terminated by rapid filtration through GF/B glass fibre filters which had been pretreated with polyethyleneimine (0.3%). The protein-bound radio-activity is measured in a TopCount NXT (Perkin Elmer/Packard). Non-specific binding is defined as radioactivity bound in the presence of 1.0 μM Lys-Des-Arg9-bradykinin. The concentration/binding curve is analysed using a computer-assisted nonlinear curve fitting. The Ki which corresponds to the test substance is determined using the data obtained in this manner.
It is pointed out that the compounds were selected for their different structural elements and not in order to emphasise specific compounds: […]

pKi: −log10 of the molar value.

`COc1cc(C)c(S(=O)(=O)N(C)CCOCC(=O)N(C)[C@@H]2CCN(C3CCN(C4CCOCC4)CC3)C2)c(C)c1` [Example 3] had a pKi of 7.61.
In turn, `COc1cc(C)c(S(=O)(=O)N(C)CCOCC(=O)N(C)C[C@@H]2CCN(C(=O)CCN3CCCC3)C2)c(C)c1` [Example 6] had a pKi of 6.74.
`COc1cc(C)c(S(=O)(=O)N(C)CCOCC(=O)N(C)[C@@H]2CCN(C3CCN(C4CC4)CC3)C2)c(C)c1` [Example 8] had a pKi of 7.63.
